From patent US7915276B2, “Berberrubine derivatives having antifungal activities” (priority 2006, dated 2011)

Assays:
[1] = target: T1, chitin synthase 1 of Candida albicans chs2 Δ chs 3 Δ (Candida albicans, UniProt P23316); assay: In vitro enzyme assay for chitin synthase 1 of Candida albicans (enzyme 1); format: biochemical; settings: relative to polyoxin D (50% inhibitory activity = value 5)
T1 construct: Crude enzyme was prepared using the Candida albicans chs2 Δ chs 3 Δ mutant; endogenous in cells; host or cells: Candida albicans chs2Δ/chs2Δ chs3Δ/chs3Δ mutant; 130,000 x g membrane pellet
Outline: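 Crude membrane enzyme from the C. albicans chs2Δ chs3Δ strain was trypsin-activated for 15 min at 30 °C. Reaction: 32 mM Tris-HCl pH 7.5, 2 mM cobalt acetate, 1.1 mM UDP-[14C]GlcNAc, 90 min at 30 °C; TCA-insoluble radioactivity counted. Scored 1–8 by relative polyoxin D concentration (5 = equal).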

[2] = tested on: Candida tropicalis ATCC 13803; assay: In vitro antifungal activity (MIC), NCCLS method; format: cell-based; settings: 48 hours
Source text: (§1) Candida albicans ATCC 10231, Candida lusitaniae ATCC 42720, Candida krusei ATCC 6258, Candida tropicalis ATCC 13803, Candida glabrata ATCC 48435, Candida parapsilosis ATCC 34136, Cryptococcus neoformans ATCC 36556, Aspergillus fumigatus ATCC 16424, Aspergillus flavus ATCC 64025, Aspergillus terreus ATCC 46941 and Mucor ramosissimus ATCC 90286 strains for the MIC (minimum inhibitory concentration) measurement were obtained from ATCC (American Type Culture Collection) in the U.S. The Candida albicans A207(clinical isolate) strain was used by isolating it from the patients.
(§2) The determination of MIC was performed according to the NCCLS (National Committee for Clinical Laboratory Standard) method. Each test sample solution was diluted two-fold and inoculated with a fungal suspension to reach a final inoculum size of 5×10^2 to 2.5×10^3 cell/mL. The Cryptococcus neoformans strain was cultured in the RPMI 1640 medium for 72 hours. Other strains were cultured for 48 hours.

[3] = tested on: Candida lusitaniae ATCC 42720; assay: In vitro antifungal activity (MIC), NCCLS method; format: cell-based; settings: 48 hours
Source text: as §1, §2

[4] = tested on: Cryptococcus neoformans ATCC 36556; assay: In vitro antifungal activity (MIC), NCCLS method; format: cell-based; settings: RPMI 1640 medium, 72 hours
Source text: as §1, §2

[5] = tested on: Aspergillus flavus ATCC 64025; assay: In vitro antifungal activity (MIC), NCCLS method; format: cell-based; settings: 48 hours
Source text: as §1, §2

[6] = tested on: Aspergillus fumigatus ATCC 16424; assay: In vitro antifungal activity (MIC), NCCLS method; format: cell-based; settings: 48 hours
Source text: as §1, §2

[7] = tested on: Candida albicans A207 (clinical isolate); assay: In vitro antifungal activity (MIC), NCCLS method; format: cell-based; settings: 48 hours
Source text: as §1, §2

[8] = tested on: Candida glabrata ATCC 48435; assay: In vitro antifungal activity (MIC), NCCLS method; format: cell-based; settings: Candida glabrata ATCC 48435; 48 hours
Source text: as §1, §2

[9] = tested on: Candida albicans ATCC 10231; assay: In vitro antifungal activity (MIC), NCCLS method; format: cell-based; settings: 48 hours
Source text: as §1, §2

[10] = tested on: Aspergillus terreus ATCC 46941; assay: In vitro antifungal activity (MIC), NCCLS method; format: cell-based; settings: 48 hours
Source text: as §1, §2

[11] = tested on: Candida parapsilosis ATCC 34136; assay: In vitro antifungal activity (MIC), NCCLS method; format: cell-based; settings: Candida parapsilosis ATCC 34136; 48 hours
Source text: as §1, §2

[12] = tested on: Mucor ramosissimus ATCC 90286; assay: In vitro antifungal activity (MIC), NCCLS method; format: cell-based; settings: 48 hours
Source text: as §1, §2

Candida krusei ATCC 6258 = assay: In vitro antifungal activity (MIC), NCCLS method; format: cell-based; settings: 48 hours
Source text: as §1, §2

[13] = target: T2, chitin synthase 2 of Saccharomyces cerevisiae ECY38-38A(pAS6) (Saccharomyces cerevisiae, UniProt P14180); assay: In vitro enzyme assay for chitin synthase 2 of Saccharomyces cerevisiae (enzyme 2); format: biochemical; settings: relative to polyoxin D (50% inhibitory activity = value 5)
T2 construct: made in house; host or cells: Saccharomyces cerevisiae ECY38-38A (chs1-23 chs2::LEU2 cal1/csd2) carrying plasmid pAS6, grown in galactose medium; 130,000 x g membrane pellet
Outline: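 Crude membrane chitin synthase 2 came from S. cerevisiae ECY38-38A(pAS6), expressing only CHS2, and was trypsin-activated (15 min, 30 °C) then trypsin-inhibited. The reaction ran in 32 mM Tris-HCl pH 7.5, 2 mM cobalt acetate, 1.1 mM UDP-[14C]-GlcNAc, 90 min at 30 °C. TCA-precipitated product was counted by scintillation; scores 1–8 reflect concentration relative to polyoxin D's 50% inhibition (score 5).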

T1 sequence (P23316 whole entry, stated change not applied): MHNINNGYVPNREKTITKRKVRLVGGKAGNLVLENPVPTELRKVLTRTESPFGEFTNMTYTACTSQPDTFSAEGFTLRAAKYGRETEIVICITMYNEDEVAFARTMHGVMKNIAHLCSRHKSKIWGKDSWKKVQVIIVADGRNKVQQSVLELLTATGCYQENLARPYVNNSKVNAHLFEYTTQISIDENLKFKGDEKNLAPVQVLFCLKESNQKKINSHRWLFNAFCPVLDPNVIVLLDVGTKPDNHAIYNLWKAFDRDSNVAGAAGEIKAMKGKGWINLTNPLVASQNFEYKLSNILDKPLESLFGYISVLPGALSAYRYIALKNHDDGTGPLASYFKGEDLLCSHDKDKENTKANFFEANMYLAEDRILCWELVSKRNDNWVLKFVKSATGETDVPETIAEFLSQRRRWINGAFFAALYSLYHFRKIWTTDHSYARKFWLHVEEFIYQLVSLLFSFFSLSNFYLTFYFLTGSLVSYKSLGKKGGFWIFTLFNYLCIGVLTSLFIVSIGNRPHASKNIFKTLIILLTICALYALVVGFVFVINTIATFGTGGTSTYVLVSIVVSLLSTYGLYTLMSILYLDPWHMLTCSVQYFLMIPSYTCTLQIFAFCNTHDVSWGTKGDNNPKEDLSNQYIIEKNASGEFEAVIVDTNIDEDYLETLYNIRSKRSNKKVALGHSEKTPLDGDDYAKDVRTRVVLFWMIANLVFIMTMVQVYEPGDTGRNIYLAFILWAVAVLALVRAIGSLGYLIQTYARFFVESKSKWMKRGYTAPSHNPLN
T2 sequence (P14180 whole entry): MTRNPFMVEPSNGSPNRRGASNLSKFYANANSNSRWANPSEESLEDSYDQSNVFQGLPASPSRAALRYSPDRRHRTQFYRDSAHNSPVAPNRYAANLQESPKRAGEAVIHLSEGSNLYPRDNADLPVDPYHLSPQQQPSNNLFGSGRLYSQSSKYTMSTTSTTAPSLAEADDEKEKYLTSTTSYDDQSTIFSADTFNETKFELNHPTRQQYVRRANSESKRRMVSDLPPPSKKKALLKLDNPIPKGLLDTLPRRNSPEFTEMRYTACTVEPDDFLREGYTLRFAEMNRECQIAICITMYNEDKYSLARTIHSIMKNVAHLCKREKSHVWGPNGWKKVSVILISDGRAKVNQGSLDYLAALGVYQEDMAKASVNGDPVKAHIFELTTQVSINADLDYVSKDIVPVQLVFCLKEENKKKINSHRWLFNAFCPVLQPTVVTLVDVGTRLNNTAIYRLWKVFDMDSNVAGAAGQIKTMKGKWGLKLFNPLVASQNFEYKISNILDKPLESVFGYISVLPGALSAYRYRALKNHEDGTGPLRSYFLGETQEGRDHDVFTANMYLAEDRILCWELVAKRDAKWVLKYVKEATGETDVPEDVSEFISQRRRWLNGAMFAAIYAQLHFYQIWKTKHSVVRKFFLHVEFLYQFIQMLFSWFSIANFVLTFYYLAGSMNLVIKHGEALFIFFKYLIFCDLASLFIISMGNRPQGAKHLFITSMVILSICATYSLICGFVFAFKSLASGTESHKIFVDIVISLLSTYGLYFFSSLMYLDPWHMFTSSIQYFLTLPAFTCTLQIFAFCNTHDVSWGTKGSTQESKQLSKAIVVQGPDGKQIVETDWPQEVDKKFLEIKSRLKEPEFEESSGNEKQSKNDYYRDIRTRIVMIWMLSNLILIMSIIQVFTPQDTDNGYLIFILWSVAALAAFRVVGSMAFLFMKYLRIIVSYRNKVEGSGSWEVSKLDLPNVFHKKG

In the case of “13-(4-tert-Butylbenzyl)-9-O-crotylberberrubine chloride [Compound No. 46]”, the “Relative activity Enzyme 1” value [1] is reported as 2 (Compounds having the inhibitory activity at 2-fold, 4-fold, 8-fold and 16-fold higher concentrations than that of polyoxin D were given the values of 4, 3, 2 and 1, respectively), the “MIC (minimum inhibitory concentration)” value [2] is reported as 0.5 µg/mL and the “MIC (minimum inhibitory concentration)” value [3] is reported as 1 µg/mL. For the same substance, the “MIC (minimum inhibitory concentration)” value [4] was 1 µg/mL, the “MIC (minimum inhibitory concentration)” value [5] was 8 µg/mL and the “MIC (minimum inhibitory concentration)” value [6] was 2 µg/mL. The “MIC (minimum inhibitory concentration)” value [7] was 0.5 µg/mL, the “MIC (minimum inhibitory concentration)” value [8] was 4 µg/mL and the “MIC (minimum inhibitory concentration)” value [9] was 0.5 µg/mL. For the same substance, the “MIC (minimum inhibitory concentration)” value [10] was 4 µg/mL, the “MIC (minimum inhibitory concentration)” value [11] was 4 µg/mL and the “MIC (minimum inhibitory concentration)” value [12] was 4 µg/mL. The “MIC (minimum inhibitory concentration)” value (Candida krusei ATCC 6258) was 1 µg/mL and the “Relative activity Enzyme 2” value [13] was 6 (compounds having the inhibitory activity at ½, ¼ and ⅛ lower concentrations than that of polyoxin D were given the values of 6, 7 and 8, respectively).
“13-(4-tert-Butylbenzyl)-9-O-(4-isopropylbenzyl)berberrubine chloride [Compound No. 48]” was tested, and the “Relative activity Enzyme 1” value [1] was 2 (Compounds having the inhibitory activity at 2-fold, 4-fold, 8-fold and 16-fold higher concentrations than that of polyoxin D were given the values of 4, 3, 2 and 1, respectively), the “MIC (minimum inhibitory concentration)” value [2] was 1 µg/mL and the “MIC (minimum inhibitory concentration)” value [3] was 4 µg/mL. For the same substance, the “MIC (minimum inhibitory concentration)” value [4] was 2 µg/mL, the “MIC (minimum inhibitory concentration)” value [5] was 8 µg/mL and the “MIC (minimum inhibitory concentration)” value [6] was 4 µg/mL. For the same substance, the “MIC (minimum inhibitory concentration)” value [7] was 1 µg/mL, the “MIC (minimum inhibitory concentration)” value [8] was 2 µg/mL and the “MIC (minimum inhibitory concentration)” value [9] was 1 µg/mL. The “MIC (minimum inhibitory concentration)” value [10] was 8 µg/mL, the “MIC (minimum inhibitory concentration)” value [11] was 8 µg/mL and the “MIC (minimum inhibitory concentration)” value [12] was 8 µg/mL. The “MIC (minimum inhibitory concentration)” value (Candida krusei ATCC 6258) was 2 µg/mL and the “Relative activity Enzyme 2” value [13] was 5 (A compound having the same inhibitory activity as that of polyoxin D at the same concentration was given the value 5).
In the case of “13-(4-tert-Butylbenzyl)-9-O-(4-tert-butylbenzyl)berberrubine bromide [Compound No. 15]”, the “Relative activity Enzyme 1” value [1] is reported as 3 (Compounds having the inhibitory activity at 2-fold, 4-fold, 8-fold and 16-fold higher concentrations than that of polyoxin D were given the values of 4, 3, 2 and 1, respectively), the “MIC (minimum inhibitory concentration)” value [2] is reported as 1 µg/mL and the “MIC (minimum inhibitory concentration)” value [3] is reported as 4 µg/mL. For the same substance, the “MIC (minimum inhibitory concentration)” value [4] was 2 µg/mL, the “MIC (minimum inhibitory concentration)” value [5] was 8 µg/mL and the “MIC (minimum inhibitory concentration)” value [6] was 4 µg/mL. The “MIC (minimum inhibitory concentration)” value [7] was 1 µg/mL, the “MIC (minimum inhibitory concentration)” value [8] was 4 µg/mL and the “MIC (minimum inhibitory concentration)” value [9] was 1 µg/mL. For the same substance, the “MIC (minimum inhibitory concentration)” value [10] was 8 µg/mL, the “MIC (minimum inhibitory concentration)” value [11] was 8 µg/mL and the “MIC (minimum inhibitory concentration)” value [12] was 8 µg/mL. The “MIC (minimum inhibitory concentration)” value (Candida krusei ATCC 6258) was 4 µg/mL and the “Relative activity Enzyme 2” value [13] was 5 (A compound having the same inhibitory activity as that of polyoxin D at the same concentration was given the value 5).
“13-(4-Isopropylbenzyl)-9-O-hexylberberrubine iodide [Compound No. 19]” was tested, and the “Relative activity Enzyme 1” value [1] was 4 (Compounds having the inhibitory activity at 2-fold, 4-fold, 8-fold and 16-fold higher concentrations than that of polyoxin D were given the values of 4, 3, 2 and 1, respectively), the “MIC (minimum inhibitory concentration)” value [2] was 0.125 µg/mL and the “MIC (minimum inhibitory concentration)” value [3] was 1 µg/mL. The “MIC (minimum inhibitory concentration)” value [4] was 1 µg/mL, the “MIC (minimum inhibitory concentration)” value [5] was 8 µg/mL and the “MIC (minimum inhibitory concentration)” value [6] was 2 µg/mL. The “MIC (minimum inhibitory concentration)” value [7] was 0.25 µg/mL, the “MIC (minimum inhibitory concentration)” value [8] was 2 µg/mL and the “MIC (minimum inhibitory concentration)” value [9] was 0.25 µg/mL. The “MIC (minimum inhibitory concentration)” value [10] was 8 µg/mL, the “MIC (minimum inhibitory concentration)” value [11] was 2 µg/mL and the “MIC (minimum inhibitory concentration)” value [12] was 4 µg/mL. The “MIC (minimum inhibitory concentration)” value (Candida krusei ATCC 6258) was 1 µg/mL and the “Relative activity Enzyme 2” value [13] was 6 (compounds having the inhibitory activity at ½, ¼ and ⅛ lower concentrations than that of polyoxin D were given the values of 6, 7 and 8, respectively).
